In patent US20240299379A1, “COMPOSITIONS OF CLOFAZIMINE AND AMIKACIN FOR PULMONARY ADMINISTRATION IN THE TREATMENT OF RESPIRATORY DISEASES” (BOARD OF REGENTS, THE UNIVERSITY OF TEXAS SYSTEM, priority 2021, published 2024):
Where a name gives a salt, the structure may show the parent alone.

Assays:
[1] = Aerosol performance of clofazimine and amikacin co-administered from dual chamber Dualhaler DPI, Next Generation Impactor; format: physicochemical; details: Dualhaler device
[2] = Aerosol performance of physical blends, Next Generation Impactor, medium resistance RS01 DPI; format: physicochemical; details: RS01 device
Method: (§1) The aerosol performance of the physically blended mixtures was determined using cascade impaction, specifically as Next Generation Impactor, as prescribed by the United States Pharmacopeia chapter 601. For these studies, a medium resistance Model 7 RS01 dry powder inhaler (DPI) manufactured by Berry Global Osnago was utilized. 20 mg of the physical blends (1:0.5 CFZ-AMK, 1:2 CFZ-AMK, 1:4 CFZ-AMK, or 1:8 CFZ-AMK) or 10 mg of air jet milled clofazimine or air jet milled amikacin sulfate alone was loaded into a size 3 hydroxypropyl methylcellulose (HPMC) capsule. The device was actuated at an airflow rate to induce a 4 kPa pressure drop (i.e., 80 L/min) or 2 kPa pressure drop (i.e., 56.6 L/min) through the device for period of time sufficient to draw 4 L of air through the apparatus. To reduce particle bounce and re-entrainment, the NGI plates were coated with 1% (v/v) glycerin in ethanol and allowed to dry prior to performing the experiment. After actuation, powder was collected from the capsule, device, induction port, and stages of the Next Generation Impactor by adding a volume of 75/25 acetonitrile/water containing 0.16 mg/mL polysorbate 80 that was sufficient to dissolve the deposited powder. Phase separation of the solution into an organic phase containing clofazimine and an aqueous phase containing amikacin was induced by adding a volume of 5 M ammonium acetate equivalent to 16.7% of the original solution volume. The organic and aqueous phases were analyzed using high pressure liquid chromatography and concentration of each drug was quantified using a previously prepared standard curve.
(§2) Stage 1-7 cut-off diameters were determined using equation 1 and MOC cut-off diameters were determined using equation 2.
(§3) where D50,Q is the cutoff diameter at the flow rate, Q, and the subscript, n, refers to the archival reference value for Qn=60 L/min, and the values for the exponent, x, were determined by the archival NGI stage cut size-flow rate calculations, as determined by Marple et al.
(§4) The emitted fraction (EF) was calculated as the total drug emitted from the device as a percentage of the total mass of drug collected (i.e., recovered dose). The respirable fraction that was less than 5 μm aerodynamic diameter and less than 3 μm aerodynamic diameter corresponded to the percentage of the recovered dose predicted to have the aerodynamic diameter below 5 μm and 3 μm. The respirable fraction values were interpolated from a graph with the cumulative percentage of the emitted dose deposited downstream from an NGI stage as the ordinate and the particle cutoff size of that stage as the abscissa. For each sample, the mass median aerodynamic diameter (MMAD), which represents the mass-based median point of the aerodynamic particle size distribution (APSD), and geometric standard deviation (GSD), which represents the spread of the APSD, were determined by plotting the cumulative percentage of mass less than the stated aerodynamic size cut (expressed as Probits) against the aerodynamic diameter (log scale). Distributions were log normal. A linear regression was performed to determine the aerodynamic diameters corresponding to the 50% percentile (Probit 5) to determine the MMAD, and the aerodynamic diameters corresponding the 15.87% percentile (Probit 4) and 84.13% percentile (Probit 6) to calculate the GSD. The results of this analysis are shown in Table 5-8 and FIG. 2, and are presented as mean±standard deviation (n=3)

[3] = Aerosol performance of composite spray dried particles, Next Generation Impactor, medium resistance RS01 DPI; format: physicochemical; details: spray dried powder, RS01 device
Method: as §1, with “the composite spray dried particles” for “the physically blended mixtures”, “the spray dried powders (1:2” for “the physical blends (1:0.5 CFZ-AMK, 1:2”, “or spray dried” for “or air jet milled”, “capsule. For these studies, spray dried clofazimine was not tested due to the extremely low powder yield and the tendency of the particles to dry as large needle structures.” for “capsule.”
as §2, §3
as §4, with “Tables 11-14” for “Table 5-8”, “11,” for “2,”

[4] = Geometric particle size distribution by laser diffraction (Sympatec HELOS, RODOS dry dispersion); format: physicochemical; details: micronized with Model 00 Jet-O-Mizer Air Jet Mill
Method: PSD was calculated using Fraunhofer theory using the Sympatec laser diffractor. […] Measurements were taken every 5 msec […] following powder dispersion. Measurements that were between 5-25% optical density were averaged to determine particle size distribution. Data was analyzed using HELOS software version 5.6.0.0 with an HRLD model to convert the scattering pattern to a particle size distribution.

[5] = tested on: Mab-infected THP-1 macrophages; assay: In vitro efficacy study, micronized CFZ particles added to media containing AMK; format: cell-based, Mycobacterium abscessus (Mab)
[6] = in vivo, po; cited from earlier work
[7] = cited from earlier work
[8] = in vivo, po; cited from earlier work; remark: listed apart in the source
[9] = Solubility of the drug substances in solvents; format: physicochemical; details: ethanol and isopropanol, organic solvent or mixture
[10] = 2 kPa pressure drop, amikacin component (Table 17)
[11] = 4 kPa pressure drop, amikacin component
[12] = 2 kPa pressure drop, amikacin component (Table 7)
[13] = 4 kPa pressure drop, clofazimine component as titled (Table 13, reference Spray dried AMK-S alone)
[14] = 2 kPa pressure drop, amikacin component as titled (Table 18, reference Jet milled CFZ alone)
[15] = 4 kPa pressure drop, clofazimine component
[16] = 2 kPa pressure drop, clofazimine component
[17] = 4 kPa pressure drop, clofazimine component (Table 12)
[18] = 2 kPa pressure drop, amikacin component as titled (Table 8, reference Jet milled CFZ alone)

## NCC[C@H](O)C(=O)NC1C[C@H](N)[C@@H](O[C@H]2O[C@H](CN)[C@H](O)[C@H](O)[C@H]2O)[C@H](O)[C@H]1O[C@H]1O[C@H](CO)[C@@H](O)[C@H](N)[C@H]1O (stereo partly drawn) [Jet milled AMK-S alone, (2S)-4-amino-N-[(2S,3S,4R,5S)-5-amino-2-[(2S,3R,4S,5S,6R)-4-amino-3,5-dihydroxy-6-(hydroxymethyl)oxan-2-yl]oxy-4-[(2R,3R,4S,5R,6R)-6-(aminomethyl)-3,4,5-trihydroxy-oxan-2-yl]oxy-3-hydroxy-cyclohexyl]-2-hydroxybutanamide]
[1]; [10]
  EF (emitted fraction): 14.1 ± 23.7%
  RF < 3 μm: 15.5 ± 2.4%
  RF < 5 μm: 23.4 ± 4.6%
[1]; [11]
  EF (emitted fraction): 47.8 ± 13.8%
  RF < 3 μm: 22.6 ± 1.4%
  RF < 5 μm: 28.6 ± 1.5%
[2]; [12]
  EF (emitted fraction): 77.2 ± 11.2%
  MMAD: 8.23 ± 0.57 μm
  RF < 3 μm: 30.4 ± 3.4%
  RF < 5 μm: 48.3 ± 3.8%
[2]; [11]
  EF (emitted fraction): 82.1 ± 1.2%
  MMAD: 9.07 ± 1.76 μm
  RF < 3 μm: 28.2 ± 4.9%
  RF < 5 μm: 40.8 ± 7.2%

## NCC[C@H](O)C(=O)NC1C[C@H](N)[C@@H](O[C@H]2O[C@H](CN)[C@H](O)[C@H](O)[C@H]2O)[C@H](O)[C@H]1O[C@H]1O[C@H](CO)[C@@H](O)[C@H](N)[C@H]1O (stereo partly drawn) [Spray dried AMK-S alone, (2S)-4-amino-N-[(2S,3S,4R,5S)-5-amino-2-[(2S,3R,4S,5S,6R)-4-amino-3,5-dihydroxy-6-(hydroxymethyl)oxan-2-yl]oxy-4-[(2R,3R,4S,5R,6R)-6-(aminomethyl)-3,4,5-trihydroxy-oxan-2-yl]oxy-3-hydroxy-cyclohexyl]-2-hydroxybutanamide]
[3]; [11]
  EF (emitted fraction): 61.9 ± 8.6%
  MMAD: 6.23 ± 0.97 μm
  RF < 3 μm: 44.5 ± 3.6%
  RF < 5 μm: 50.8 ± 5.8%
[3]; [13]
  EF (emitted fraction): 43.3 ± 8.7%
  MMAD: 11.29 ± 2.93 μm
  RF < 3 μm: 31.8 ± 6.9%
  RF < 5 μm: 37.6 ± 6.2%

## NCC[C@H](O)C(=O)NC1C[C@H](N)[C@@H](O[C@H]2O[C@H](CN)[C@H](O)[C@H](O)[C@H]2O)[C@H](O)[C@H]1O[C@H]1O[C@H](CO)[C@@H](O)[C@H](N)[C@H]1O (stereo partly drawn) [AMK sulfate, (2S)-4-amino-N-[(2S,3S,4R,5S)-5-amino-2-[(2S,3R,4S,5S,6R)-4-amino-3,5-dihydroxy-6-(hydroxymethyl)oxan-2-yl]oxy-4-[(2R,3R,4S,5R,6R)-6-(aminomethyl)-3,4,5-trihydroxy-oxan-2-yl]oxy-3-hydroxy-cyclohexyl]-2-hydroxybutanamide]
[4]
  X50 particle diameter: 4.04 μm
  X90 particle diameter: 7.72 μm

## CC(C)N=c1cc2n(-c3ccc(Cl)cc3)c3ccccc3nc-2cc1Nc1ccc(Cl)cc1 [Jet milled CFZ alone, N,5-bis(4-chlorophenyl)-3-(1-methylethylimino)-5H-phenazin-2-amine]
[1]; [14]
  EF (emitted fraction): 41.2 ± 4.1%
  RF < 3 μm: 19.8 ± 2.2%
  RF < 5 μm: 26.1 ± 3.1%
[1]; [15]
  EF (emitted fraction): 44.9 ± 16.1%
  RF < 3 μm: 25.1 ± 10.9%
  RF < 5 μm: 30.8 ± 12.6%
[3]; [16]
  EF (emitted fraction): 80.7 ± 9.7%
  MMAD: 10.08 ± 7.79 μm
  RF < 3 μm: 37.5 ± 18.2%
  RF < 5 μm: 51.0 ± 19.0%
[3]; [17]
  EF (emitted fraction): 76.2 ± 4.1%
  MMAD: 5.36 ± 0.53 μm
  RF < 3 μm: 47.4 ± 3.7%
  RF < 5 μm: 58.8 ± 4.7%
[2]; [18]
  EF (emitted fraction): 80.7 ± 9.7%
  MMAD: 10.08 ± 7.79 μm
  RF < 3 μm: 37.5 ± 18.2%
  RF < 5 μm: 51.0 ± 19.0%
[2]; [15]
  EF (emitted fraction): 76.2 ± 4.1%
  MMAD: 5.36 ± 0.53 μm
  RF < 3 μm: 47.4 ± 3.7%
  RF < 5 μm: 58.8 ± 4.7%
[5]; increasing doses of micronized CFZ
  Intracellular drug accumulation with increasing doses: notable increase in intracellular drug accumulation
[5]; increasing doses of micronized CFZ, with AMK
  Change in intracellular bacterial burden with increasing doses: no statistically significant changes
[5]; micronized CFZ particles added to media containing 40 μg/mL AMK
  Intracellular Mab bacilli compared to the use of AMK alone: statistically significant reduction

## CC(C)N=c1cc2n(-c3ccc(Cl)cc3)c3ccccc3nc-2cc1Nc1ccc(Cl)cc1 [clofazimine, N,5-bis(4-chlorophenyl)-3-(1-methylethylimino)-5H-phenazin-2-amine]
[6]
  Duration of administration necessary to reach steady-state concentrations: At least 30 days
[4]
  X50 particle diameter: 2.39 μm
  X90 particle diameter: 5.29 μm
[7]; Merck Index
  Solubility in DMF and benzene: soluble
  Solubility in acetone and ethyl acetate: sparingly soluble
  Solubility in chloroform: 15 parts
  Solubility in ethanol: 700 parts
  Solubility in ether: 1000 parts
[7]; Sabnis et al., 2015
  Solution concentration that can be formed in methanol: 0.1%
[7]
  Solubility in water: practically insoluble
[8]
  Patient population reporting at least one adverse drug effect: 47.5%
[9]
  solubility: ≤ 800 µg/mL
